The test system of one assay is IL-6. The assay can be described thus: IL-6 secretion in LPS-stimulated RAW264.7 macrophages (ELISA). The assay is classed as cell-based, murine. Particulars: LPS (0.5 μg/mL)-stimulated RAW264.7 cells, 5, 20, 40 μM, 24 h. As to the method: (§1) To elucidate the anti-inflammatory mechanisms underlying 3g and 3k, we conducted a comprehensive investigation into their impact on the secretion of pro-inflammatory cytokines, employing an LPS-stimulated RAW264.7 macrophage model. TNF-α and IL-6, which serve as pivotal mediators in the pathogenesis of ALI, are primarily secreted by activated alveolar macrophages, neutrophils, and lung structural cells. […] In this study, RAW264.7 cells were treated with LPS (0.5 μg mL^−1) and varying concentrations of 3g or 3k for 24 hours. […] This mechanistic understanding provides robust support for the therapeutic potential of the novel diaryl ketone scaffold in the ALI management.
(§2) Fig. 2 Compounds 3g and 3k inhibited the cytokine production of RAW264.7 cells stimulated by LPS. […] The levels of IL-6 (A) and TNF-α (B) in the culture medium were measured by ELISA kits. Data are expressed as mean ± SEM for each group of independent experiments (n = 3); *p < 0.05; **p < 0.01; ***p < 0.001 vs. model group.
(§3) Based on the initial screening results, compounds 3g and 3k were selected for further experimentation. […] The levels of TNF-α and IL-6 released into the macrophage supernatant were quantified using ELISA kits sourced from Elabscience (Wuhan, China), according to the manufacturer's guidelines.
(In general: In an ELISA, binding on a coated surface is turned into a signal by an enzyme label.)

Assay [1] deals with TNF-α. Kind of assay: TNF-α in BALF of ALI mice (ELISA). The assay is classed as in vivo, C57BL/6 mice. Particulars: SWCNT-induced ALI mice, 50 mg per kg dose. On the procedure:
To confirm the in vivo inhibitory effects of 3g and 3k, we examined the levels of pro-inflammatory cytokines in bronchoalveolar lavage fluid (BALF) from ALI mice.
Based on the results of the previous in vitro experiments, 3g and 3k were chosen for animal experiments. 3g was dissolved in 5% DMSO and 3k was dissolved in 0.5% sodium carboxymethyl cellulose (CMC-Na). Male C57BL/6 mice were randomly divided into four groups of ten animals each: CON, single-walled carbon nanotubes (SWCNT) model, 3k (50 mg kg^−1) + SWCNT, 3g (50 mg kg^−1) + SWCNT. The SWCNT model group was administered a one-time tracheal drip of 50 μL of SWCNT suspension containing 40 μg of SWCNT (approximately 1.86 mg per kg body weight) per mouse to model ALI. A blank tracheal drip of PBS was administered to the negative control. 3k + SWCNT and 3g + SWCNT groups were administered 3k or 3g of 50 mg per kg body weight once a day for 3d. The animals in the CON group received the same volume of 0.5% CMC-Na. The 1st dose was administered 1 h before modeling to avoid excessive damage to mice. The control and model groups were injected intraperitoneally with a blank solvent. […]
The collected bronchoalveolar lavage fluid (BALF) was centrifuged to obtain the supernatant. The concentrations of TNF-α and IL-6 in BALF were determined using ELISA. […]

A further assay relates to NF-κB p65. Kind of assay: Immunofluorescence of NF-κB p65 in lung tissues. The assay is classed as in vivo, C57BL/6 mice. Particulars: SWCNT-induced ALI mice, 50 mg/kg once a day for 3 d. An excerpt: To elucidate the mechanism underlying the modulation of NF-κB pathway, we employed immunofluorescence techniques to scrutinize the spatiotemporal dynamics of NF-κB p65 within lung tissues. The canonical NF-κB signaling cascade involves IκB kinase (IKK)-mediated phosphorylation of IκBα, triggering its ubiquitination and proteasomal degradation. This process releases the NF-κB p65/p50 heterodimer, enabling its nuclear translocation and subsequent initiation of pro-inflammatory mediator transcription.[35,36] […] This finding implies a pharmacological activity that is contingent upon the structural characteristics of the compounds.
(§4) Based on the results of the previous in vitro experiments, 3g and 3k were chosen for animal experiments. 3g was dissolved in 5% DMSO and 3k was dissolved in 0.5% sodium carboxymethyl cellulose (CMC-Na). Male C57BL/6 mice were randomly divided into four groups of ten animals each: CON, single-walled carbon nanotubes (SWCNT) model, 3k (50 mg kg^−1) + SWCNT, 3g (50 mg kg^−1) + SWCNT. The SWCNT model group was administered a one-time tracheal drip of 50 μL of SWCNT suspension containing 40 μg of SWCNT (approximately 1.86 mg per kg body weight) per mouse to model ALI. […]
Mouse lung tissues were isolated and stored in a 4% paraformaldehyde solution. […] Representative images of each sample were acquired (magnification ×200) and analyzed using the ImageJ software. […]

In the next assay the test system is SWCNT-induced ALI mice. The assay can be described thus: Complete blood count in SWCNT-induced ALI mice. The assay is classed as in vivo, C57BL/6 mice. Particulars: 50 mg/kg once a day for 3 d, p < 0.01 vs. model. An excerpt:
To explore the immunomodulatory effects of 3g and 3k, we conducted an analysis of systemic inflammatory responses in mice with SWCNT-induced ALI by employing hematological profiling. During inflammatory responses, immune activation induces cytokine production and modulates leukocyte trafficking dynamics. […] Mechanistically, the proliferation of LY is initiated in response to inflammatory stimuli as a means to combat infection. […] Consequently, this leads to a diminished requirement for the continuous mobilization of LY. These findings highlight the anti-inflammatory and immunomodulatory properties of pyrrolo[2,1-a]isoquinoline derivatives in mitigating SWCNT-induced pulmonary injury.
Based on the results of the previous in vitro experiments, 3g and 3k were chosen for animal experiments. 3g was dissolved in 5% DMSO and 3k was dissolved in 0.5% sodium carboxymethyl cellulose (CMC-Na). Male C57BL/6 mice were randomly divided into four groups of ten animals each: CON, single-walled carbon nanotubes (SWCNT) model, 3k (50 mg kg^−1) + SWCNT, 3g (50 mg kg^−1) + SWCNT. […]
Blood samples were extracted from the eyeballs of each experimental mouse cohort to obtain comprehensive whole blood specimens. Complete blood count (CBC) and differential leukocyte count (DLC) were determined using an automatic blood cell analyzer (Mindray CAL 6000, China).

Assay [2] relates to TNF-α. The assay can be described thus: TNF-α secretion in LPS-stimulated RAW264.7 macrophages (ELISA). The settings on record: Mus musculus, LPS (0.5 μg/mL)-stimulated RAW264.7 cells, 24 h, read-out: IC50 for TNF-α inhibition. The assay is classed as cell-based, murine. On the procedure:
as §1, §2, §3

Assay [3] relates to phosphorylated IκB and p65. The assay can be described thus: Western blot of NF-κB pathway in lung tissues. The assay is classed as in vivo, C57BL/6 mice. Particulars: SWCNT-induced ALI mice, 50 mg/kg once a day for 3 d.
Excerpt: The expression levels of phosphorylated IκB and p65 were meticulously examined. To further delve into and evaluate the impact of compounds 3g and 3k on the NF-κB signaling pathway within SWCNT-induced ALI murine models, western blotting analysis was used to comprehensively assess the activation status of the NF-κB pathway in lung tissues.
Collectively, novel pyrrolo[2,1-a]isoquinoline aryl ketones represent promising anti-inflammatory candidates for SWCNT-induced pulmonary injury, functioning through NF-κB pathway regulation.
as §4
Lung tissue samples were collected from each mouse. […] The protein concentration was accurately determined using the BCA method. […] ECL chemiluminescent reagent was used to visualize the protein bands, and the gray values of the bands were analyzed using ImageJ software.

The structures appear in SMILES notation. “Also recorded” adds a separate entry of the source.

A word on the IC50: it is the concentration at which inhibition is half-maximal. On to `O=C(c1ccc(F)cc1)c1ccc2c3ccccc3ccn12` [3g], for which the IL-6 secretion entry in the assay on IL-6 is on record as “suppressed cytokine secretion in a dose-dependent manner”. Besides, the “TNF-α level in BALF” value in the assay on TNF-α [1] was “effectively suppressed the release of TNF-α”. Also, in the assay with NF-κB p65 (50 mg/kg), the “p65 fluorescence intensity and nuclear translocation in lung tissue” value was “reduced fluorescence intensity and suppressed nuclear translocation of p65; also recorded: significantly enhanced efficacy in inhibiting he nuclear translocation of p65”. In addition, the “Circulating lymphocyte (LY) count” value in the assay with SWCNT-induced ALI mice is “significantly reduced circulating LY populations”. For the same molecule, in the assay with TNF-α [2], the half-maximal inhibitory concentration (IC50) worked out at 7.85 µM. The “Phosphorylated IκB and p65 levels in lung tissue” value in assay [3] was “substantially suppressed these phosphorylation events”.

Turning to `Cc1ccccc1C(=O)c1ccc2c3ccccc3ccn12` [3k], the IL-6 secretion result in the assay on IL-6 is “suppressed cytokine secretion in a dose-dependent manner”. The “TNF-α level in BALF” value in the assay with TNF-α [1] is on record as “effectively suppressed the release of TNF-α”. Moreover, the “p65 fluorescence intensity and nuclear translocation in lung tissue” value in the assay on NF-κB p65 was “reduced fluorescence intensity and suppressed nuclear translocation of p65”. Moreover, in the assay on SWCNT-induced ALI mice, the “Circulating lymphocyte (LY) count” value is “significantly reduced circulating LY populations”. Further, the IC50 in the assay on TNF-α [2] is 8.3 µM. For the same molecule, in assay [3], the “Phosphorylated IκB and p65 levels in lung tissue” value was “substantially suppressed these phosphorylation events”.

Values taken from paper PMC12590356, “Novel pyrrolo[2,1-a]isoquinoline aryl ketones attenuate carbon nanotube-induced acute lung injury through NF-κB pathway inhibition” (RSC Advances, 2025).
